Source: US6469059B1, “Fungicidal composition and method for disease control of paddy-rice plants” (BASF Aktiengesellschaft, priority 1999, dated 2002)
Like-named read-outs stand apart in the source and are kept apart here.

Tests used:
Format in all cases: in vivo
[1] = tested on: Sheath blight (Rhizoctonia solani); assay: Preventive effect by paddy water application against Sheath blight; details: water-applied 7 days before inoculation
Method: Preventive Effect by Paddy Water Application Against Sheath Blight (Rhizoctonia solani)
By using pots of 1/8000 are, the compounds prepared according to the Formulations Examples which were diluted with water to a predetermined concentration were water-applied to ten-leave-stage rice plant (Kin-maze) cultivated under flooding. The treated pots were allowed to stand in a greenhouse for seven days, and the fungus nuclei of Sheath blight (Rhizoctonia solani) was inoculated at the root of the plant. Then, the plant was allowed to stand under humid conditions at 30° C. for one week, and then, the number of the disease lesion was determined to obtain the preventive index according to the criterion of Test Example 1.

[2] = tested on: Helminthosporium leaf spot (Cochliobolus miyabeanus); assay: Preventive effect by application against Helminthosporium leaf spot (foliar spray); details: foliar spray before inoculation, six-leave-stage rice
[3] = tested on: Blast (Pyricularia oryzae); details: foliar spray before inoculation, rice plant (Kin-maze)
[4] = tested on: Blast (Pyricularia oryzae); details: sprayed one day after inoculation
[5] = tested on: Sheath blight (Rhizoctonia solani); assay: Preventive effect by application against Sheath blight (foliar spray); details: foliar spray before inoculation, ten-leave-stage rice
Method: Preventive Effect by Application Against Sheat Blight (Rhizoctonia solani)
The wettable powders prepared according to the Formulation Examples which were diluted with water to a predetermined concentrations were sprayed to the stems and leaves of ten-leave-stage of rice plant (Kin-maze) cultivated in pots under flooding. After air-drying, the fungous nucleiof Sheath blight (Rhizoctonia solani) was inoculated at the root of the plant. After that, the plant was allowed to stand under humid conditions at 30° C. for one week, and then, the number of the disease lesion was determined to obtain the preventive index according to the criterion of Test Example 1.

[6] = tested on: Blast (Pyricularia oryzae); details: granules water-applied 7 days before inoculation

In the case of `CCCCC(O)(Cn1cncn1)c1ccc(Cl)cc1Cl` (racemic) [Compound 10, (RS)-2-(2,4-dichlorophenyl)-1-(1H-1,2,4-triazol-1-yl)hexan-2-ol], the Preventive index ([1]; 10 g/10a active ingredient) is reported as 3 (Preventive value 60 to 84%) and the Preventive index ([2]; 10 ppm active ingredient) is reported as 3 (Preventive value 60 to 84%).
With `CC(C)Oc1cccc(NC(=O)c2ccccc2C(F)(F)F)c1` [Compound 1, α,α,α-trifluoro-3′-isopropoxy-O-toluanilide] the Preventive index ([3]; 500 ppm active ingredient) was 0, the Preventive index ([4]; 200 ppm active ingredient) was 0 and the Preventive index ([5]; 10 ppm active ingredient) was 3 (Preventive value 60 to 84%). The Preventive index ([6]; 200 g/10a active ingredient) was 0.
With `Cc1ccccc1C(=O)Nc1cccc(OC(C)C)c1` [Compound 2, 3′-isopropoxy-2-methylbenzanilide] the Preventive index ([3]; 500 ppm active ingredient) was 0 and the Preventive index ([5]; 10 ppm active ingredient) was 2.
In the case of `Cc1nc(C(F)(F)F)c(C(=O)Nc2c(Br)cc(OC(F)(F)F)cc2Br)s1` [Compound 3, N-(2,6-dibromo-4-trifluoromethoxyphenyl)-2-methyl-4-trifluoromethylthiazole-5-carboxamide], the Preventive index ([3]; 500 ppm active ingredient) is reported as 0 and the Preventive index ([5]; 10 ppm active ingredient) is reported as 3 (Preventive value 60 to 84%).
`Cc1nn(C)c(Cl)c1C(=O)Nc1cccc2c1COC2(C)C` [Compound 4, 5-chloro-1,3-dimethyl-N-(1,1-dimethyl-2-oxa-4-indanyl)pyrazole-4-carboxamide] was tested, and the Preventive index ([6]; 200 g/10a active ingredient) was 0.
For `OCC1=C[C@H](N[C@H]2C[C@H](CO)[C@@H](O[C@@H]3O[C@H](CO)[C@@H](O)[C@H](O)[C@H]3O)[C@H](O)[C@H]2O)[C@H](O)[C@@H](O)[C@@H]1O` [Compound 5, validamycin], the Preventive index ([3]; 500 ppm active ingredient) was 0 and the Preventive index ([5]; 10 ppm active ingredient) was 3 (Preventive value 60 to 84%).
`O=C(Nc1ccccc1)N(Cc1ccc(Cl)cc1)C1CCCC1` [Compound 6, 1-(4-chlorobenzyl)-1-cyclopentyl-3-phenylurea] was tested, and the Preventive index ([3]; 500 ppm active ingredient) was 0 and the Preventive index ([5]; 10 ppm active ingredient) was 3 (Preventive value 60 to 84%).
Work on `Cc1c(Cl)cc(-c2ccc(=O)[nH]n2)cc1Cl` [Compound 7, 6-(3,5-dichloro-4-methylphenyl)-3(2H)-pyridazinone] yielded a Preventive index ([5]; 10 ppm active ingredient) of 2.
In the case of `CC(C)NC(=O)N1CC(=O)N(c2cc(Cl)cc(Cl)c2)C1=O` [Compound 8, 3-(3,5-dichlorophenyl)-N-isopropyl-2,4-dioxoimidazolidine-1-carboxamide], the Preventive index ([1]; 10 g/10a active ingredient) is reported as 3 (Preventive value 60 to 84%) and the Preventive index ([2]; 10 ppm active ingredient) is reported as 3 (Preventive value 60 to 84%).
In the case of `CCCCC(C#N)(Cn1cncn1)c1ccc(Cl)cc1` (stereo not shown) [Compound 9, 2-p-chlorophenyl-2-(1H-1,2,4-triazol-1-ylmethyl)hexanenitrile], the Preventive index ([1]; 10 g/10a active ingredient) is reported as 3 (Preventive value 60 to 84%) and the Preventive index ([2]; 10 ppm active ingredient) is reported as 3 (Preventive value 60 to 84%).
For `C/C(=N/Nc1nc(C)cc(C)n1)c1ccccc1C` [Compound 11, (Z)-2′-methylacetophenone 4,6-dimethylpyrimidin-2-ylhydrazone], the Preventive index ([1]; 10 g/10a active ingredient) was 3 (Preventive value 60 to 84%) and the Preventive index ([2]; 10 ppm active ingredient) was 3 (Preventive value 60 to 84%).
In the case of `CC(=O)O.CC(=O)O.CC(=O)O.N=C(N)NCCCCCCCCNCCCCCCCCNC(=N)N` [Compound 12, 1,1′-iminodi(octamethylene)diguanidinium triacetate], the Preventive index ([1]; 10 g/10a active ingredient) is reported as 3 (Preventive value 60 to 84%) and the Preventive index ([2]; 10 ppm active ingredient) is reported as 3 (Preventive value 60 to 84%).
`CO/C=C(/C(=O)OC)c1ccccc1Oc1cc(Oc2ccccc2C#N)ncn1` [Compound 13, methyl (E)-2-{2-[6-(2-cyanophenoxy)pyrimidin-4-yloxy]phenyl}-3-methoxy-acrylate] was tested, and the Preventive index ([5]; 10 ppm active ingredient) was 3 (Preventive value 60 to 84%), the Preventive index ([6]; 10 g/10a active ingredient) was 3 (Preventive value 60 to 84%) and the Preventive index ([2]; 10 ppm active ingredient) was 3 (Preventive value 60 to 84%).
`CNC(=O)/C(=N/OC)c1ccccc1Oc1ccccc1` [Compound 14, 2-methoxyimino-N-methyl-2-(2-phenoxy)phenyl-acetamide] was tested, and the Preventive index ([5]; 50 ppm active ingredient) was 3 (Preventive value 60 to 84%), the Preventive index ([6]; 50 g/10a active ingredient) was 3 (Preventive value 60 to 84%) and the Preventive index ([2]; 50 ppm active ingredient) was 3 (Preventive value 60 to 84%).
In the case of `CCOP(=O)(Sc1ccccc1)Sc1ccccc1` [Compound 16, O-ethyl-S,S-diphenyldithiophosphate], the Preventive index ([3]; 50 ppm active ingredient) is reported as 3 (Preventive value 60 to 84%).
For `C[C@H]1O[C@H](O[C@H]2[C@H](O)[C@@H](O)[C@@H](O)[C@H](O)[C@@H]2O)[C@@H](N)C[C@@H]1NC(=N)C(=O)O` [Compound 19, kasugamycin], the Preventive index ([4]; 20 ppm active ingredient) was 4 (Preventive value 85 to 94%).
In the case of `CC(NC(=O)C(C#N)C(C)(C)C)c1ccc(Cl)cc1Cl` (stereo not shown) [Compound 21, N-[1-(2,4-dichlorophenyl)ethyl]-2-cyano-3,3-dimethylbuthaneamide], the Preventive index ([3]; 5 ppm active ingredient) is reported as 4 (Preventive value 85 to 94%).
`O=C1CCc2cccc3c2N1CC3` [Compound 22, 1,2,5,6-tetrahydropyrrolo(3,2,1-i,j)quinolin-4-one] was tested, and the Preventive index ([6]; 10 g/10a active ingredient) was 4 (Preventive value 85 to 94%).
For `C=CCOC1=NS(=O)(=O)c2ccccc21` [Compound 23, 3-allyloxy-1,2-benzoisothiazole-1,1-dioxide], the Preventive index ([6]; 50 g/10a active ingredient) was 3 (Preventive value 60 to 84%).
For `CSC(=O)c1cccc2nnsc12` [Compound 24, S-methyl-benzo(1,2,3)-thiadiazole-7-carbothiolate], the Preventive index ([6]; 50 g/10a active ingredient) was 3 (Preventive value 60 to 84%).
With `CC(Oc1ccc(Cl)cc1Cl)C(=O)NC(C)(C#N)C(C)C` (stereo not shown) [Compound A, N-(1-cyano-1,2-dimethylpropyl)-2-(2,4-dichlorophenoxy)propanamide] the Preventive index ([1]; 200 g/10a active ingredient) was 0, the Preventive index ([5]; 200 ppm active ingredient) was 0 and the Preventive index ([6]; 10 g/10a active ingredient) was 3 (Preventive value 60 to 84%). It also gave a Preventive index ([2]; 200 ppm active ingredient) of 0.
